From patent publication US20240067633A1, “KETOHEXOKINASE INHIBITOR AND USE THEREOF” (SICHUAN HAISCO PHARMACEUTICAL CO., LTD., priority 2020, published 2024)
Values belong to the compound of their own block, whether it stands above or below them.

Tests used:
[1] = Pharmacokinetic experiment in mice; format: in vivo, ICR mice
Protocol: 3.1 Experimental animals: male ICR mice, about 22 g, 6-8 weeks old, 18 mice/compound, purchased from Hunan SJA Laboratory Animal Co., Ltd.
3.2 Experimental design: On the day of the experiment, 18 ICR mice were randomly grouped according to their body weight. The animals were fasted with water available for 12 to 14 h one day before the administration, and were fed 4 h after the administration.
(§1) Vehicle for intravenous administration: 5% DMA+5% Solutol+90% Saline; Vehicle for intragastric administration: 0.5% MC
(§2) Before and after the administration, 0.08 mL of blood was taken from the orbit of the animals under isoflurane anaesthesia and placed in an EDTAK2 centrifuge tube. The blood was centrifuged at 5000 rpm and 4° C. for 10 min to collect plasma. Blood sampling time points for the intravenous administration group: 0, 5 min, 15 min, 30 min, 1 h, 2 h, 4 h, 6 h, 8 h, and 24 h; and blood sampling time points for the intragastric administration group: 0, 5 min, 15 min, 30 min, 1 h, 2 h, 4 h, 6 h, 8 h, and 24 h. Before analysis and detection, all samples were stored at −80° C.

CYP3A4 = CYP3A4 (Homo sapiens (Human), UniProt P08684); assay: CYP450 enzyme inhibition test, mixed human liver microsomes; format: in vitro ADME; conditions: 0.05-50 μM
Sequence of CYP3A4 (P08684 whole entry): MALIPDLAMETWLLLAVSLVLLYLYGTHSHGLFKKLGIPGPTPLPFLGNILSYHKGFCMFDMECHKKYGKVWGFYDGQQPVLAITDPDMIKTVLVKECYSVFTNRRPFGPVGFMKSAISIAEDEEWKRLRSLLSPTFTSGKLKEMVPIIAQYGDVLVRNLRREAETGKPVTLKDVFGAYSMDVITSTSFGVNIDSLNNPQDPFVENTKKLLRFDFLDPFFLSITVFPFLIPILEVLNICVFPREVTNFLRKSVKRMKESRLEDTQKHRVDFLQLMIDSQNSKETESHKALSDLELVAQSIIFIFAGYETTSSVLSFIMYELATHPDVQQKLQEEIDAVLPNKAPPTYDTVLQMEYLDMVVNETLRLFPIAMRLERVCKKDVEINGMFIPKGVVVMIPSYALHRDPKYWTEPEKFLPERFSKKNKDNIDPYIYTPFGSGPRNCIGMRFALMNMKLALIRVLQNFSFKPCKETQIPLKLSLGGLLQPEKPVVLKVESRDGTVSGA

CYP2D6 = CYP2D6 (Homo sapiens (Human), UniProt P10635); assay: as above; format: in vitro ADME; conditions: 0.05-50 μM
Sequence of CYP2D6 (P10635 whole entry): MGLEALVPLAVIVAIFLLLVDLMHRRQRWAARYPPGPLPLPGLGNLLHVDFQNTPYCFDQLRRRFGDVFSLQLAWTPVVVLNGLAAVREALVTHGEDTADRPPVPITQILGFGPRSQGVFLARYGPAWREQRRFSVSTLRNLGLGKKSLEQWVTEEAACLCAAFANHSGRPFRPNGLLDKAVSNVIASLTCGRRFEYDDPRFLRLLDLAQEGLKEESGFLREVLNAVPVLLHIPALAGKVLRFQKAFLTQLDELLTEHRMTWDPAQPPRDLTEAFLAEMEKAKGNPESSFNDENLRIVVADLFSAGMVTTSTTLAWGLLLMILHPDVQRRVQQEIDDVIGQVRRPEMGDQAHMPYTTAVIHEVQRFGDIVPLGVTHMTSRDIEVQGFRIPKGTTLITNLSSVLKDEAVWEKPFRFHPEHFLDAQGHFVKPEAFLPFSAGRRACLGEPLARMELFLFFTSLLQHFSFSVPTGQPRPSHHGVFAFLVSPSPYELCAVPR

hKHK-C = hKHK-C (Homo sapiens (Human), UniProt P50053); assay: Experiment of inhibitory activity against KHK in vitro (ADP-glo), hKHKc; format: biochemical; conditions: purified hKHK-C, 50 mM fructose, 0.2 mM ATP
Sequence of hKHK-C (P50053 whole entry): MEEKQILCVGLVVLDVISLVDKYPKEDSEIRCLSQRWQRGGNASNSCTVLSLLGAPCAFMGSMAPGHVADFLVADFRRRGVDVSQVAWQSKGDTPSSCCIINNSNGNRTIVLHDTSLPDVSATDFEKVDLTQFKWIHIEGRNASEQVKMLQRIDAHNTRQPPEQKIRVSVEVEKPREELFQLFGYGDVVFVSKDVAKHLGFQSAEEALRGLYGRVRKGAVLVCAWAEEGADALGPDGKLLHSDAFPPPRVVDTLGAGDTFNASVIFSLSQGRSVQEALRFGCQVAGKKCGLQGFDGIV
Protocol: (§3) With the involvement of ATP, fructokinase phosphorylates fructose to produce fructose-1-phosphate and ADP. In this experiment, the effect of the compound on the activity of fructokinase was determined by measuring the amount of ADP produced in the process. Test compound stocks were prepared in DMSO. Before use, the stocks were 3-fold serially diluted with assay buffers (25 mM HEPES, 300 mM KCl, 10 mM MgCl2, 10 mM CaCl2), pH 7.0) to 5-fold the final concentration tested, and the DMSO content was adjusted to 1%. In a 384-well plate, the test compound was added to achieve a final concentration of 7.6 nM to 100 μM (assay buffers containing 1% DMSO were added to background and control wells). 5 ng/μL purified hKHK-C (assay buffers were added to background wells), 50 mM fructose and 0.2 mM ATP were added to reach a total volume of 10 μL and reacted at room temperature for 30 min. After the reaction was completed, 10 μL of ADP-glo (promega) was added and mixed uniformly, and the plate was incubated at room temperature for 40 min. Then the ADP-glo was added again, mixed uniformly and reacted for 40 min. The spontaneous luminescence intensity was measured using an Envision microplate reader. The inhibition rate of the compound against […] was calculated using the following formula,
(§4) [formula] • wherein • RLUZPE=luminescence intensity of control well • RLUblank=luminescence intensity of background well • RLUcpd=luminescence intensity of test compound well
(§5) A curve of inhibition rate (y-axis) versus compound concentration (x-axis) was fitted by logarithmic (inhibitor) and normalized response (variable slope) in GraphPad Prism, and EC50 was calculated.

[2] = Pharmacokinetic experiment in rats; format: in vivo, SD rats
Protocol: 2.1 Experimental animals: Male SD rats, about 220 g, 6-8 weeks old, 6 rats/compound, purchased from Hunan SJA Laboratory Animal Co., Ltd.
2.2 Experimental design: On the day of the experiment, 6 SD rats were randomly grouped according to their body weight. The animals were fasted with water available for 12 to 14 h one day before the administration, and were fed 4 h after the administration.
as §1
as §2, with “0.15” for “0.08”

hKHKa = hKHKa (Homo sapiens (Human), UniProt P50053); assay: Experiment of inhibitory activity against KHK in vitro (ADP-glo), hKHKa; format: biochemical
Sequence of hKHKa (P50053 other isoform, or with tags, fused parts or gaps): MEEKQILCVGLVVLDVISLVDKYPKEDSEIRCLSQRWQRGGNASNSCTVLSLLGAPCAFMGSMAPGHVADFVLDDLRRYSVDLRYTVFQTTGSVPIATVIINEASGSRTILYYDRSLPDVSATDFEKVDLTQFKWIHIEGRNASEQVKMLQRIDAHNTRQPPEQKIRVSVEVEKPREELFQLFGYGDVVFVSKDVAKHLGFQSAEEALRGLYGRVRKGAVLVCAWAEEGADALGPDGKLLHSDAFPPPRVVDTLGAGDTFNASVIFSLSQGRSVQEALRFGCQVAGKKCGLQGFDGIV
Protocol: [The source words this procedure for another variant and reports this variant under the same test.] as §3, §4, §5

rKHKc = rKHKc (Rattus norvegicus (Rat), UniProt Q02974); assay: Experiment of inhibitory activity against KHK in vitro (ADP-glo), rKHKc; format: biochemical
Sequence of rKHKc (Q02974 whole entry): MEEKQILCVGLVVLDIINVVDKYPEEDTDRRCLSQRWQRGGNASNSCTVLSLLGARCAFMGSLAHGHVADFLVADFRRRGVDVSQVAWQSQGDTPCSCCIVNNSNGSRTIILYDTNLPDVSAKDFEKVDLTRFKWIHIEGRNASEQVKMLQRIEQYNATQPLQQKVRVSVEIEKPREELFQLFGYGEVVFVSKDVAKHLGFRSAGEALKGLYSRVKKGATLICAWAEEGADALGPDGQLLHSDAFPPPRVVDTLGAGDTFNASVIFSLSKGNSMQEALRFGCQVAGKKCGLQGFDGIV
Protocol: [The source words this procedure for another species and reports this species under the same test.] as §3, with “5 ng/μL purified hKHK-C (assay buffers were added to background wells), 50 mM fructose and 0.2 mM ATP were added to reach a total volume of 10 μL and reacted at room temperature for 30 min. After the reaction was completed, 10 μL of ADP-glo (promega) was added and mixed uniformly, and the plate was incubated at room temperature for 40 min. Then the ADP-glo was added again, mixed uniformly and reacted for 40 min.” left out
as §4, §5

mKHKc = mKHKc (Mus musculus (Mouse), UniProt P97328); assay: Experiment of inhibitory activity against KHK in vitro (ADP-glo), mKHKc; format: biochemical
Sequence of mKHKc (P97328 whole entry): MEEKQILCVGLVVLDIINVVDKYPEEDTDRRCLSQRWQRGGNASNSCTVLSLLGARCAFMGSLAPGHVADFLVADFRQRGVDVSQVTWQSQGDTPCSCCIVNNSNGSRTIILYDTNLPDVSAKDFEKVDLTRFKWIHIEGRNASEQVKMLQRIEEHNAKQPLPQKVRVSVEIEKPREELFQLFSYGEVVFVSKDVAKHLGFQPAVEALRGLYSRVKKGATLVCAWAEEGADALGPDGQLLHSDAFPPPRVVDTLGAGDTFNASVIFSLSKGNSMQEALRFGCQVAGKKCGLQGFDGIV
Protocol: [The source words this procedure for another species and reports this species under the same test.] as §3, with “5 ng/μL purified hKHK-C (assay buffers were added to background wells), 50 mM fructose and 0.2 mM ATP were added to reach a total volume of 10 μL and reacted at room temperature for 30 min. After the reaction was completed, 10 μL of ADP-glo (promega) was added and mixed uniformly, and the plate was incubated at room temperature for 40 min. Then the ADP-glo was added again, mixed uniformly and reacted for 40 min.” left out
as §4, §5

Compound: 2-((1R,5S,6S)-3-(7,7-difluoro-2-((S)-2-(trifluoromethyl)azetidin-1-yl)-6,7-dihydro-5H-cyclopenta[d]pyrimidin-4-yl)-3-azabicyclo[3.1.1]heptan-6-yl)acetic acid [Isomer 2 of compound 20]
F ([1]; i.g. 3 mg/kg): 87.2% | AUC0-t ([1]; plasma, i.g. 3 mg/kg): 4807 ng·h/mL | AUC0-t ([1]; plasma, i.v. 1 mg/kg): 1838 ng·h/mL | CL ([1]; plasma, i.v. 1 mg/kg): 8.84 mL/min/kg | Vdss ([1]; plasma, i.v. 1 mg/kg): 0.977 L/kg | IC50 (CYP3A4): > 50 µM | IC50 (CYP2D6): > 50 µM | EC50 (hKHK-C): 49.8 nM | F ([2]; i.g. 5 mg/kg): 111% | AUC0-t ([2]; plasma, i.g. 5 mg/kg): 64058 ng·h/mL | AUC0-t ([2]; plasma, i.v. 1 mg/kg): 11592 ng·h/mL | CL ([2]; plasma, i.v. 1 mg/kg): 1.35 mL/min/kg | Vdss ([2]; plasma, i.v. 1 mg/kg): 0.568 L/kg

EC50 (hKHK-C): 58.6 nM | EC50 (hKHKa): 59.7 nM
Compound: C[C@H]1CCN1c1nc(N2CCC(CC(=O)O)C2)c2c(c1C#N)C(F)(F)CC2 (single isomer, unassigned) [Isomer 1 of compound 8]

Compound: C[C@H]1CCN1c1nc(N2C[C@H]3C[C@@H](C2)[C@@H]3CC(=O)O)c2c(n1)C(F)(F)CCC2 (single isomer, unassigned; isomer 2) [Isomer 2 of compound 3]
EC50 (rKHKc): 146 nM | EC50 (mKHKc): 134 nM | EC50 (hKHK-C): 37.4 nM | EC50 (hKHKa): 51.8 nM

Compound: C[C@H]1CCN1c1nc(N2C[C@H]3C[C@@H](C2)[C@@H]3CC(=O)O)c2c(n1)C(F)(F)CC2 (single isomer, unassigned; isomer 2) [Isomer 2 of compound 4]
EC50 (hKHK-C): 19.4 nM

Compound: O=C(O)C[C@H]1[C@@H]2C[C@H]1CN(c1nc(N3CC[C@H]3C(F)F)nc3c1CCC3(F)F)C2 (single isomer, unassigned; isomer 2) [Isomer 2 of compound 19]
EC50 (hKHK-C): 60.6 nM

EC50 (hKHK-C): 36.5 nM | EC50 (hKHKa): 35.2 nM
Compound: C[C@H]1CCN1c1nc(N2CC(CC(=O)O)C2)c2c(c1C#N)C(F)(F)CC2 [Compound 7, (S)-2-(1-(4-cyano-5,5-difluoro-3-(2-methylazetidin-1-yl)-6,7-dihydro-5H-cyclopenta[c]pyridin-1-yl)azetidin-3-yl)acetic acid]

Compound: [2H]C([2H])([2H])[C@H]1CCN1c1nc(N2C[C@H]3C[C@@H](C2)C3CC(=O)O)c2c(n1)C(F)(F)CC2 (stereo partly drawn) [Compound 16, 2-((1R,5S,6R)-3-(7,7-difluoro-2-((S)-2-(methyl-d3)azetidin-1-yl)-6,7-dihydro-5H-cyclopenta[d]pyrimidin-4-yl)-3-azabicyclo[3.1.1]heptan-6-yl)acetic acid]
EC50 (hKHK-C): 37.7 nM

EC50 (hKHK-C): 52.7 nM
Compound: [2H]C([2H])([2H])[C@H]1CCN1c1nc(N2CC(CC(=O)O)C2)c2c(c1C#N)C(F)(F)CC2 [Compound 18, (S)-2-(1-(4-cyano-5,5-difluoro-3-(2-(methyl-d3)azetidin-1-yl)-6,7-dihydro-5H-cyclopenta[c]pyridin-1-yl)azetidin-3-yl)acetic acid]
